3 molecules from US8653110B2, “Active compound combination comprising azadirachtin and a substituted enaminocarbonyl compound” (Bayer CropScience AG, priority 2010, dated 2014) can be followed below.

The subject of experiment [1] is Trialeurodes vaporariorum. Put plainly: Whiteflies on tomatoes (Example 5). It is filed as in vivo. Here is the method:
Example 5 describes the effect of the combination according to the invention against whiteflies (Trialeurodes vaporariorum) on tomatoes (Lycopersicon esculentum). The test was carried out under GEP according to EPPO guideline PP 1/36(2) with 3 repetitions of in each case 4 plants. At the start of the infection, the plants were treated as follows: • 1. untreated • 2. compound (I-1) as SL 200 (compound according to formula (I-1), 17% strength), 50 g of active compound/ha • 3. azadirachtin 30 g of active compound/ha, NeemAzal® • 4. azadirachtin 15 g of active compound/ha, NeemAzal® • 5. azadirachtin 5 g of active compound/ha, NeemAzal® • 6. compound (I-1) as SL 200+azadirachtin, 50+30 g of active compound/ha • 7. compound (I-1) as SL 200+azadirachtin, 50+15 g of active compound/ha • 8. compound (I-1) as SL 200+azadirachtin, 50+5 g of active compound/ha • 9. positive control imidacloprid 100 g of active compound/ha
The spray solution was prepared by mixing commercial formulations and using water to adjust to the concentration mentioned. The application rate was 1000 l/ha. 2 applications were carried out at intervals of 14 days. The number of adult flies and the number of larvae were scored on days 2 to 21 after the first application. What is shown is the effect of the products, which becomes evident in a reduction of the number of insects or larvae compared to the untreated control. Imidacloprid was also tested, as positive control.

The next experiment deals with Phaedon cochleariae. Put plainly: Phaedon cochleariae larvae test (Example 3). The following applies: cabbage leaves sprayed, (I-1) 120 g of ai/ha, Azadirachta indica 20%, combination 120 g + 20%.
A further experiment relates to Plutella xylostella. Description: Diamondback moth bioassay on Savoy cabbage leaf discs (Example 9). It is filed as in vivo. Here is the method: Example 9 also describes the effect of the combination according to the invention on caterpillars of diamondback moth Plutella xylostella on Savoy cabbage. The plants were grown in a greenhouse, and five plants each were treated as follows: The spray solution was prepared by mixing commercial formulations and using water to adjust to the concentration mentioned. The application rate was 1000 l/ha. • 1. untreated • 2. compound (I-1) as SL 200 (compound according to formula (I-1), 17% strength), 50 g of active compound/ha • 3. azadirachtin 30 g of active compound/ha, NeemAzal® • 4. azadirachtin 15 g of active compound/ha, NeemAzal® • 5. azadirachtin 5 g of active compound/ha, NeemAzal® • 6. compound (I-1) as SL 200+azadirachtin, 50+30 g of active compound/ha • 7. compound (I-1) as SL 200+azadirachtin, 50+15 g of active compound/ha • 8. compound (I-1) as SL 200+azadirachtin, 50+5 g of active compound/ha • 9. positive control imidacloprid 100 g of active compound/ha
The plants were incubated under greenhouse conditions (20° C., 70% relative atmospheric humidity), the plants being placed at random. After 3 days, the first leaf samples were taken. Here, 5 leaves were picked from each plant. 10 leaf discs of a diameter of 6 cm were punched from the leaves and placed in Petri dishes covered with moistened filter paper. Once the leaf discs had been placed into the Petri dishes, 5 Plutella xylostella larvae of the L2 instar were added. The Petri dishes were placed on a tablett, covered with a dark film and kept at 20° C. in the laboratory. Evaluation was carried out on days 9, 14 and 21 after the addition of the larvae, the number of surviving animals being scored.
What is shown is the effect of the products, which becomes evident in a reduction of the number of diamondback moths compared to the untreated control.

Another experiment deals with Cyclocephala immaculata. Put plainly: Watering test with beetle larvae (Example 2). It is filed as in vivo. As to conditions: for Effect on day 1 in % / Effect on day 4 in % / Effect on day 7 in % / Effect on day 14 in %: L3 larvae, watering, (I-1) 600, azadirachtin 60, (I-1)+azadirachtin 600+60, trichlorfon 4529 g of active compound/ha. From the text:
Beetle larvae (grubs) are important lawn pests. On the one hand, they feed on grass roots, damaging them directly, on the other hand they are a favoured food for birds which, searching for grubs, destroy the turf. For treatment against grubs, infested lawns are usually watered with insecticidal compositions. This type of treatment is emulated in the laboratory by Example 2.
To prepare a suitable active compound preparation, a commercial formulation of active compound or active compound combination is mixed with water until the desired concentration is reached. Pots with soil substrate were watered with the following active compound preparations: • 1. untreated • 2. compound (I-1) as SL 200, 600 g of active compound/ha • 3. azadirachtin, 60 g of active compound/ha • 4. compound (I-1) as SL 200+azadirachtin, 600+60 g of active compound/ha • 5. positive control: trichlorfon 4529 g of active compound/ha
L3 larvae of Cyclocephala immaculata were placed onto the pots. After 1, 4, 7, 14 days, the survival rate was determined, and this was used to calculate the efficacy of the compositions. 100% means that all grubs were killed, 0% means no activity.

The subject of a further experiment is Diabrotica balteata. Description: Diabrotica balteata test, larvae in soil (Example 4). Type of experiment: in vivo. The following applies: soil treatment, maize, (I-1) 60 g of ai/ha, Azadirachta indica 20%, combination 60 g + 20%. The method, then: • Solvent: 4 parts by weight of acetone • Emulsifier: 1 part by weight of alkylaryl polyglycol ether
The active compound preparation was mixed with soil. […] The treated soil is filled into pots, and 5 maize corns are placed into each pot. 3 days after sowing, larvae of the corn rootworm (Diabrotica balteata) are placed into the treated soil.
The efficacy is calculated from the number of maize plants that have emerged.

The mark [2] stands for this setting: Day 2, (I-1) 50, azadirachtin 30, (I-1)+azadirachtin 50+30, imidacloprid 100 g/ha.
Where [3] appears, read: Day 7, (I-1) 50, azadirachtin 30, (I-1)+azadirachtin 50+30, imidacloprid 100 g/ha.
Setting [4] is: Day 14, (I-1) 50, azadirachtin 30, (I-1)+azadirachtin 50+30, imidacloprid 100 g/ha.
Where [5] appears, read: Day 21, (I-1) 50, azadirachtin 30, (I-1)+azadirachtin 50+30, imidacloprid 100 g/ha.
Setting [6] is: Day 9, (I-1) 50, azadirachtin 30, (I-1)+azadirachtin 50+30, imidacloprid 100 g/ha.
Setting [7] is: Day 2, azadirachtin 5, (I-1)+azadirachtin 50+5 g/ha.
The mark [8] stands for this setting: Day 2, azadirachtin 15, (I-1)+azadirachtin 50+15 g/ha.
[9] abbreviates: Day 7, azadirachtin 5, (I-1)+azadirachtin 50+5 g/ha.
The mark [10] stands for this setting: Day 7, azadirachtin 15, (I-1)+azadirachtin 50+15 g/ha.
[11] abbreviates: Day 14, azadirachtin 5, (I-1)+azadirachtin 50+5 g/ha.
[12] abbreviates: Day 14, azadirachtin 15, (I-1)+azadirachtin 50+15 g/ha.
The mark [13] stands for this setting: Day 21, azadirachtin 5, (I-1)+azadirachtin 50+5 g/ha.
Where [14] appears, read: Day 21, azadirachtin 15, (I-1)+azadirachtin 50+15 g/ha.

As to `O=C1C=C(N(Cc2ccc(Cl)nc2)CC(F)F)CO1` [(I-1), 4-{[(6-chloropyrid-3-yl)methyl](2,2-difluoroethyl)amino}furan-2(5H)-one], the “Activity against adults [%]” value is reported as 73% in experiment [1] (setting [2]), 75% in experiment [1] (setting [3]), 22% in experiment [1] (setting [4]) and 57% in experiment [1] (setting [5]). The “Activity against larvae [%]” value in experiment [1] (setting [2]) worked out at 0%; in experiment [1] (setting [3]), 18%; in experiment [1] (setting [4]), 0%; in experiment [1] (setting [5]), 14%. The “Kill in % after 1d (found)” value with Phaedon cochleariae was 15%. Besides, the “Activity against Plutella xylostella [%]” value with Plutella xylostella (setting [6]) is 0%; with Plutella xylostella (setting [4]), 21%; in the experiment on Plutella xylostella (setting [5]), 34%. Besides, in the experiment with Cyclocephala immaculata, the “Effect on day 1 in %” value turned out to be 0%. For the same molecule, in the experiment on Cyclocephala immaculata, the “Effect on day 4 in %” value is reported as 28%. In addition, the “Effect on day 7 in %” value in the experiment on Cyclocephala immaculata turned out to be 0%. Besides, the “Effect on day 14 in %” value with Cyclocephala immaculata came out at 29%. Besides, in the experiment with Diabrotica balteata, the “Kill in % after 5d (found)” value stood at 75%.

On to `C/C=C(\C)C(=O)O[C@H]1C[C@@H](OC(C)=O)[C@@]2(C(=O)OC)CO[C@H]3[C@@H](O)[C@@](C)([C@]45O[C@@]4(C)[C@H]4C[C@@H]5O[C@@H]5OC=C[C@@]54O)[C@H]4[C@]1(CO[C@]4(O)C(=O)OC)[C@@H]32` [azadirachtin], for which the “Activity against adults [%]” value is reported as 45% in experiment [1] (setting [2]); 23% in experiment [1] (setting [7]); 47% in experiment [1] (setting [8]); 47% in experiment [1] (setting [3]); 7% in experiment [1] (setting [9]); 54% in experiment [1] (setting [10]). In addition, the “Activity against adults [%]” value in experiment [1] (setting [4]) stood at 32%; in experiment [1] (setting [11]), 0%; in experiment [1] (setting [12]), 49%; in experiment [1] (setting [5]), 56%; in experiment [1] (setting [13]), 16%; in experiment [1] (setting [14]), 80%. Also, the “Activity against larvae [%]” value amounted to 0% in experiment [1] (setting [2]); 0% in experiment [1] (setting [7]); 0% in experiment [1] (setting [8]); 2% in experiment [1] (setting [3]); 24% in experiment [1] (setting [9]); 13% in experiment [1] (setting [10]). Besides, the “Activity against larvae [%]” value in experiment [1] (setting [4]) is 13%; in experiment [1] (setting [11]) it was 12%; in experiment [1] (setting [12]), 37%; in experiment [1] (setting [5]) it was 0%; in experiment [1] (setting [13]), 0%; in experiment [1] (setting [14]) it was 0%. The “Activity against Plutella xylostella [%]” value came to 46% in the experiment on Plutella xylostella (setting [6]); 0% in the experiment with Plutella xylostella (Day 9, azadirachtin 5, (I-1)+azadirachtin 50+5 g/ha); 18% in the experiment with Plutella xylostella (Day 9, azadirachtin 15, (I-1)+azadirachtin 50+15 g/ha); 72% with Plutella xylostella (setting [4]); 15% with Plutella xylostella (setting [11]); 31% in the experiment with Plutella xylostella (setting [12]). Also, the “Activity against Plutella xylostella [%]” value in the experiment with Plutella xylostella (setting [5]) is listed as 25%; in the experiment on Plutella xylostella (setting [13]), 25%; with Plutella xylostella (setting [14]) it was 38%. Moreover, the “Effect on day 1 in %” value with Cyclocephala immaculata is 0%. For the same molecule, the “Effect on day 4 in %” value with Cyclocephala immaculata came out at 0%. Moreover, in the experiment on Cyclocephala immaculata, the “Effect on day 7 in %” value is on record as 0%. In addition, the “Effect on day 14 in %” value in the experiment with Cyclocephala immaculata is 7%. In the experiment with Cyclocephala immaculata (entire duration of the test, azadirachtin 60 g of active compound/ha), the effect on grubs result was “no effect”.

On to `O=[N+]([O-])NC1=NCCN1Cc1ccc(Cl)nc1` [imidacloprid], for which the “Activity against adults [%]” value in experiment [1] (setting [2]) came out at 51%; in experiment [1] (setting [3]) it was 89%; in experiment [1] (setting [4]), 68%; in experiment [1] (setting [5]) it was 65%. For the same molecule, the “Activity against larvae [%]” value in experiment [1] (setting [2]) was determined as 0%; in experiment [1] (setting [3]) it was 60%; in experiment [1] (setting [4]), 50%; in experiment [1] (setting [5]), 52%. For the same molecule, the “Activity against Plutella xylostella [%]” value amounted to 43% in the experiment with Plutella xylostella (setting [6]), 36% in the experiment on Plutella xylostella (setting [4]) and 41% in the experiment on Plutella xylostella (setting [5]).
